From ChEMBL document CHEMBL4715742, “Design, synthesis and cytotoxic activities of novel 2,5-diketopiperazine derivatives” (Eur J Med Chem, 2016)

Experiments:
U-937 [1] = assay: Cytotoxicity against human U-937 cells assessed as reduction in cell viability measured after 24 to 72 hrs by CCK8 assay; format: functional, cell-based; settings: dose 0.37-3.3 µM, time 24-72 hrs
U-937 [2] = assay: Cytotoxicity against human U-937 cells assessed as cell viability at 0.37 uM measured after 48 hrs by CCK8 assay relative to control; format: functional; settings: read-out: Activity
K562 [3] = assay: Cytotoxicity against human K562 cells assessed as cell viability at 1.1 uM measured after 72 hrs by CCK8 assay relative to control; format: functional; settings: read-out: Activity
HeLa = assay: Cytotoxicity against human HeLa cells assessed as reduction in cell viability measured after 72 hrs by CCK8 assay; format: functional, cell-based; settings: Homo sapiens, HeLa, 72 h; read-out: IC50
U-937 [4] = assay: Induction of apoptosis in human U-937 cells assessed as apoptotic ratio at 1 uM measured after 24 hrs by annexinV/FITC-propidium iodide staining based flow cytometry (reference value: 3.7 +/- 0.3 %); format: functional
U-937 [5] = assay: Induction of apoptosis in human U-937 cells assessed as viable cells at 0.5 uM measured after 24 hrs by annexinV/FITC-propidium iodide staining based flow cytometry (reference value: 95 to 95.1 %); format: functional; settings: read-out: Activity
K562 [6] = assay: Cytotoxicity against human K562 cells assessed as cell viability at 1.1 uM measured after 48 hrs by CCK8 assay relative to control; format: functional; settings: read-out: Activity
U-937 [7] = assay: Induction of apoptosis in human U-937 cells assessed as apoptotic ratio at 0.5 uM measured after 24 hrs by annexinV/FITC-propidium iodide staining based flow cytometry (reference value: 3.7 +/- 0.3 %); format: functional
U-937 [8] = assay: Cytotoxicity against human U-937 cells assessed as cell viability at 1.1 uM measured after 24 hrs by CCK8 assay relative to control; format: functional; settings: read-out: Activity
U-937 [9] = assay: Cytotoxicity against human U-937 cells assessed as reduction in cell viability measured after 72 hrs by CCK8 assay; format: functional, cell-based; settings: Homo sapiens, U-937, 72 h; read-out: IC50
U-937 [10] = assay: Induction of apoptosis in human U-937 cells assessed as early apoptotic cells at 2 uM measured after 48 hrs by annexinV/FITC-propidium iodide staining based flow cytometry (reference value: 1.78 to 1.88 %); format: functional
U-937 [11] = assay: Induction of apoptosis in human U-937 cells assessed as necrotic cells at 1 uM measured after 24 hrs by annexinV/FITC-propidium iodide staining based flow cytometry (reference value: 1.12 to 1.48 %); format: functional
U-937 [12] = assay: Induction of apoptosis in human U-937 cells assessed as necrotic cells at 0.5 uM measured after 48 hrs by annexinV/FITC-propidium iodide staining based flow cytometry (reference value: 0.794 to 0.955 %); format: functional
U-937 [13] = assay: Induction of apoptosis in human U-937 cells assessed as early apoptotic cells at 2 uM measured after 24 hrs by annexinV/FITC-propidium iodide staining based flow cytometry (reference value: 1.28 to 1.68 %); format: functional
MCF7 = assay: Cytotoxicity against human MCF7 cells assessed as reduction in cell viability measured after 72 hrs by CCK8 assay; format: functional, cell-based; settings: Homo sapiens, MCF7, 72 h; read-out: IC50
U-937 [14] = assay: Induction of apoptosis in human U-937 cells assessed as late apoptotic cells at 2 uM measured after 48 hrs by annexinV/FITC-propidium iodide staining based flow cytometry (reference value: 3.27 to 3.41 %); format: functional
K562 [15] = assay: Cytotoxicity against human K562 cells assessed as cell viability at 0.37 uM measured after 24 hrs by CCK8 assay relative to control; format: functional; settings: read-out: Activity
U-937 [16] = assay: Induction of apoptosis in human U-937 cells assessed as late apoptotic cells at 1 uM measured after 48 hrs by annexinV/FITC-propidium iodide staining based flow cytometry (reference value: 3.27 to 3.41 %); format: functional
U-937 [17] = assay: Induction of apoptosis in human U-937 cells assessed as early apoptotic cells at 0.5 uM measured after 24 hrs by annexinV/FITC-propidium iodide staining based flow cytometry (reference value: 1.28 to 1.68 %); format: functional
U-937 [18] = assay: Induction of apoptosis in human U-937 cells assessed as late apoptotic cells at 0.5 uM measured after 24 hrs by annexinV/FITC-propidium iodide staining based flow cytometry (reference value: 2.18 to 2.22 %); format: functional
U-937 [19] = assay: Cytotoxicity against human U-937 cells assessed as cell viability at 0.37 uM measured after 72 hrs by CCK8 assay relative to control; format: functional; settings: read-out: Activity
U-937 [20] = assay: Cytotoxicity against human U-937 cells assessed as cell viability at 3.3 uM measured after 72 hrs by CCK8 assay relative to control; format: functional; settings: read-out: Activity
U-937 [21] = assay: Induction of apoptosis in human U-937 cells assessed as early apoptotic cells at 1 uM measured after 48 hrs by annexinV/FITC-propidium iodide staining based flow cytometry (reference value: 1.78 to 1.88 %); format: functional

`C=CCn1c(=O)/c(=C/CCCC)[nH]c(=O)/c1=C/c1ccc(OC)cc1` was tested, and the Activity (U-937 [1]) was “Dose-dependent effect”, the viability at 0.37 µM (U-937 [2]) was 74.9% and the viability at 1.1 µM (K562 [3]) was 17.3%. The IC50 (HeLa) was 900 nM, the Activity (U-937 [4]) was 16% and the viability at 0.5 µM (U-937 [5]) was 88.4%. The viability at 1.1 µM (K562 [6]) was 28.7%, the Activity (U-937 [7]) was 10.4% and the viability at 1.1 µM (U-937 [8]) was 17.4%. It also gave an IC50 (U-937 [9]) of 360 nM, an Activity (U-937 [10]) of 9.76% and an Activity (U-937 [11]) of 1.13%. The Activity (U-937 [12]) was 1.05%, the Activity (U-937 [13]) was 9.66% and the IC50 (MCF7) was 1900 nM. For the same compound, the Activity (U-937 [14]) was 35.1%, the viability at 0.37 µM (K562 [15]) was 87.8% and the Activity (U-937 [16]) was 14.5%. It also gave an Activity (U-937 [17]) of 4.09%, an Activity (U-937 [18]) of 6.11% and a viability at 0.37 µM (U-937 [19]) of 58.7%. The viability at 3.3 µM (U-937 [20]) was 0% and the Activity (U-937 [21]) was 10.8%.
